Values of other authors as cited in publication PMC13062086, “A sstR2-targeted radiohybrid theranostic agent for PET imaging and β^- therapy with excellent preclinical performance” (npj Imaging, 2026).

Target: T1, human serum albumin (HSA) (Homo sapiens, UniProt P02768)
T1 construct: purchased Daicel, Tokyo, Japan Chiralpak HSA column (50 × 3 mm, 5 μm, H13 h-2433)
Parameters: method as in earlier work
Conditions: literature-known values for calibration curve ref 2-3 (SI; main text 45, 46)

T1 sequence (P02768 25-609): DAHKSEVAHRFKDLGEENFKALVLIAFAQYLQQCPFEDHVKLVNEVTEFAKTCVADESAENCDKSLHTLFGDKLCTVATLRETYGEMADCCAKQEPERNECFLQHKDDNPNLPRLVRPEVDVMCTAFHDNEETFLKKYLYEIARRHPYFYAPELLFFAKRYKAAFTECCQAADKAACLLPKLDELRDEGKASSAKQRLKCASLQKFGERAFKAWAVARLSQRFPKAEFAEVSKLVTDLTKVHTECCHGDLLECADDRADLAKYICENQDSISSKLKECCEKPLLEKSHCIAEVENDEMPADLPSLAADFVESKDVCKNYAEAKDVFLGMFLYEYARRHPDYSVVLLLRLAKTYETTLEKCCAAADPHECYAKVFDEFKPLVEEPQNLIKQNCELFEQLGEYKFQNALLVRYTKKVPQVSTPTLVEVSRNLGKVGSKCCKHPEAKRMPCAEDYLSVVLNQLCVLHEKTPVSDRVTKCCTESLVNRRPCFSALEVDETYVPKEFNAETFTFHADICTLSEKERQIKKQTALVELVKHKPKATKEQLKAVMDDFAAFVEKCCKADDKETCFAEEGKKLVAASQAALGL

Structure (SMILES) | HSA-binding [%]
O=C(O)c1ccccc1 [Benzoic acid] | 34.27
Nc1ccccc1 [Aniline] | 14.06
Oc1ccccc1 [Phenol] | 20.69
CCCN(CCC)S(=O)(=O)c1ccc(C(=O)O)cc1 [Probenecid] | 95.00
COc1ccc(Cl)cc1C(=O)NCCc1ccc(S(=O)(=O)NC(=O)NC2CCCCC2)cc1 [Glibenclamide] | 99.00
OCc1ccccc1 [Benzyl alcohol] | 13.15
